Here are results for 20 molecules from patent US9187472B2 (AbbVie Inc., priority 2012, dated 2015).

Assay [1] has as its target NAMPT (human, recombinant, C-terminally His-tagged) (Homo sapiens, UniProt P43490). Briefly: Time-Resolved Fluorescence Resonance Energy Transfer (TR-FRET) Binding Assay of NAMPT. The settings on record: without substrates; 6.8 nM NAMPT, 200 nM probe, 3 hours equilibration. The essentials:
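Compounds, diluted in half-log steps, are mixed with enzyme (6.8 nM), fluorescent probe (200 nM) and Tb-anti-His antibody (1 nM) in pH 7.5 HEPES buffer containing 10 mM MgCl2 and 1 mM DTT. Plates equilibrate 3 h at room temperature; normalized FRET ratios are fitted by four-parameter logistic regression for IC50.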

For a further assay, the target named is NAMPT (Homo sapiens, UniProt P43490). The experiment in a line: TR-FRET Binding Assay of NAMPT with PRPP. The conditions noted are these: with 200 μM PRPP and 2.5 mM ATP; 2 nM NAMPT, 2 nM probe, 16 hours equilibration. The essentials:
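Compounds were mixed with 2 nM His-tagged NAMPT, 2 nM probe, 1 nM terbium anti-His antibody, 200 μM PRPP and 2.5 mM ATP in assay buffer with 2% DMSO, then left 16 hours to permit possible enzymatic processing of compounds before time-resolved FRET was measured.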
A general note: TR-FRET usually uses a lanthanide donor and a delayed reading to cut background.

Another assay has as its system PC3 cells. The experiment in a line: NAMPT Cell Proliferation Assay. Format: cell-based. The settings on record: Homo sapiens, PC-3, 120 h, 5 days incubation, cell viability by Cell Titer Glo. The essentials: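 Seed PC3 at 500 cells/well (RPMI, 10% HI-FBS), attach overnight; add compound, 10-fold series 10 μM → 1×10^−5 μM; incubate 5 d, 37° C/5% CO2; luminescent viability readout; fit % inhibition sigmoidally for IC50.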
On the technique in general: In ATP-based viability assays light output follows the ATP content of the culture.

What is called IC50 is the point on the concentration scale where inhibition reaches its midpoint.

NAMPT, sequence (P43490 whole entry): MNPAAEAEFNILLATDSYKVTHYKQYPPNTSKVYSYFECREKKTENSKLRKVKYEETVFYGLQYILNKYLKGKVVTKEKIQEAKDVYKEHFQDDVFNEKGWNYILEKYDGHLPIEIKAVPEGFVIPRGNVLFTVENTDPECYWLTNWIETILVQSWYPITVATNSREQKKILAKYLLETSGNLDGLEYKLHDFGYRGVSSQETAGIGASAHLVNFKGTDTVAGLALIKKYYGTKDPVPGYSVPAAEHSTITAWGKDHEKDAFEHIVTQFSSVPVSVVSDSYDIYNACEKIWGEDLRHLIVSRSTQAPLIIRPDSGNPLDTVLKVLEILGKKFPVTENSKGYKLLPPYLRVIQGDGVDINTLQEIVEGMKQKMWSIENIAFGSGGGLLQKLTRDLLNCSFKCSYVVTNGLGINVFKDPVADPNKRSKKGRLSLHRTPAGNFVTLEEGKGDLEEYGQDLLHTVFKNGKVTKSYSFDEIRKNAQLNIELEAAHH
NAMPT (human, recombinant, C-terminally His-tagged), sequence (P43490 whole entry): as above

Turning to `O=C(NCc1ccn2ccnc2c1)Nc1ccc(OC2CN(C(=O)[C@@H]3CCCO3)C2)cc1` [Example 432, 1-(imidazo[1,2-a]pyridin-7-ylmethyl)-3-[4-({1-[(2S)-tetrahydrofuran2-ylcarbonyl]azetidin-3-yl}oxy)phenyl]urea], the half-maximal inhibitory concentration (IC50) in assay [1] was determined as 304 nM; at NAMPT, 0.33 nM; in the assay with PC3 cells, 36.3 nM.

Consider `O=C(NCc1ccn2ccnc2c1)c1ccc(-c2cnn(CC(F)(F)F)c2)o1` [Example 738, N-(imidazo[1,2-a]pyridin-7-ylmethyl)-5-[1-(2,2,2-trifluoroethyl)-1H-pyrazol-4-yl]furan-2-carboxamide], for which the IC50 in assay [1] was 364 nM; at NAMPT, 0.705 nM; with PC3 cells it was 85.9 nM.

Regarding `Cn1cccc1CCC(=O)N(CC1CCCO1)c1ncc(C(=O)NCc2ccc3nccn3c2)s1` (stereo not drawn) [Example 189, N-(imidazo[1,2-a]pyridin-6-ylmethyl)-2-{[3-(1-methyl-1H-pyrrol-2-yl)propanoyl](tetrahydrofuran-2-ylmethyl)amino}-1,3-thiazole-5-carboxamide], the IC50 in assay [1] is 192 nM; at NAMPT, 11.1 nM; with PC3 cells, 29.3 nM.

On to `CC(C)C(=O)N1CC=C(c2ccc(NC(=O)Nc3ccc4nccn4c3)cc2)CC1` [Example 38, 1-imidazo[1,2-a]pyridin-6-yl-3-{4-[1-(2-methylpropanoyl)-1,2,3,6-tetrahydropyridin-4-yl]phenyl}urea], for which the IC50 in assay [1] was found to be 243 nM; at NAMPT, 0.266 nM; in the assay with PC3 cells, 65.9 nM.

As to `O=C(NCc1ccn2ccnc2c1)c1cnc(N2CCN(C(=O)c3ccccc3)CC2)s1` [Example 355, 2-(4-benzoylpiperazin-1-yl)-N-(imidazo[1,2-a]pyridin-7-ylmethyl)-1,3-thiazole-5-carboxamide], the IC50 stood at 831 nM in assay [1], 0.169 nM at NAMPT and 1940 nM in the assay with PC3 cells.

As to `O=C(NCc1ccn2ccnc2c1)c1ccc(C2CCN(C(=O)Cc3ccc(F)cc3)C2)s1` (stereo not drawn) [Example 758, 5-{1-[(4-fluorophenyl)acetyl]pyrrolidin-3-yl}-N-(imidazo[1,2-a]pyridin-7-ylmethyl)thiophene-2-carboxamide], the results for the half-inhibitory concentration (IC50) (in assay [1]; at NAMPT; in the assay on PC3 cells) were 132 nM, 0.61 nM and 23.2 nM, respectively.

In the case of `O=C(NCc1ccn2ccnc2c1)c1cnc(N(C[C@H]2CCCO2)C(=O)CCc2ccno2)s1` [Example 194, N-(imidazo[1,2-a]pyridin-7-ylmethyl)-2-{[3-(1,2-oxazol-5-yl)propanoyl][(2R)-tetrahydrofuran-2-ylmethyl]amino}-1,3-thiazole-5-carboxamide], the IC50 in assay [1] turned out to be 32.3 nM; on NAMPT, 0.24 nM; with PC3 cells, 0.773 nM.

For `CC(C)C(C)C(=O)N1CCC(c2ccc(C(=O)NCc3ccn4ccnc4c3)s2)C1` (stereo not drawn) [Example 800, 5-[1-(2,3-dimethylbutanoyl)pyrrolidin-3-yl]-N-(imidazo[1,2-a]pyridin-7-ylmethyl)thiophene-2-carboxamide], the values for the half-maximal inhibitory concentration (IC50) (in assay [1]; on NAMPT; in the assay on PC3 cells) were 82.1 nM, 0.925 nM and 6.21 nM, respectively.

Turning to `CC(C)(C)C(=O)N1CCC(c2ccc(C(=O)NCc3ccn4ccnc4c3)cc2)CC1` [Example 509, 4-[1-(2,2-dimethylpropanoyl)piperidin-4-yl]-N-(imidazo[1,2-a]pyridin-7-ylmethyl)benzamide], the IC50 in assay [1] came to 163 nM; at NAMPT it was 0.384 nM; in the assay with PC3 cells, 7.47 nM.

With `O=C(CC1CCCC1)Nc1ccc(C(=O)NCc2cn3ccnc3cn2)cc1` [Example 679, 4-[(cyclopentylacetyl)amino]-N-(imidazo[1,2-a]pyrazin-6-ylmethyl)benzamide], the IC50 in assay [1] came to 22.8 nM; on NAMPT, 1.74 nM; with PC3 cells, 10.9 nM.

With `CC(C)C(=O)N1CCC(c2ccc(C(=O)NCc3ccn4ccnc4c3)cc2)CC1` [Example 239, N-(imidazo[1,2-a]pyridin-7-ylmethyl)-4-[1-(2-methylpropanoyl)piperidin-4-yl]benzamide], the IC50 in assay [1] was found to be 308 nM; on NAMPT it was 0.771 nM; in the assay with PC3 cells, 17.7 nM.

For `COCCC(=O)N(CCC(C)C)c1ncc(C(=O)NCc2ccc3nccn3c2)s1` [Example 61, N-(imidazo[1,2-a]pyridin-6-ylmethyl)-2-[(3-methoxypropanoyl)(3-methylbutyl)amino]-1,3-thiazole-5-carboxamide], the IC50 in assay [1] turned out to be 78.2 nM; at NAMPT it was 0.549 nM; in the assay with PC3 cells, 6.01 nM.

For `O=C(CC1CCCC1)Nc1ccc(NC(=O)Nc2ccc3nccn3c2)cc1` [Example 3, 2-cyclopentyl-N-{4-[(imidazo[1,2-a]pyridin-6-ylcarbamoyl)amino]phenyl}acetamide], the values for the half-maximal inhibitory concentration (IC50) (in assay [1]; at NAMPT; in the assay on PC3 cells) were 31.6 nM, 0.282 nM and 36.7 nM, respectively.

Consider `CCCn1cc(-c2ccc(NC(=O)NCc3ccn4ccnc4c3)cc2)cn1` [Example 487, 1-(imidazo[1,2-a]pyridin-7-ylmethyl)-3-[4-(1-propyl-1H-pyrazol-4-yl)phenyl]urea], for which the results for the half-inhibitory concentration (IC50) (in assay [1]; on NAMPT; in the assay on PC3 cells) were 143 nM, 0.334 nM and 83.3 nM, respectively.

Take `O=C(NCc1ccn2ccnc2c1)c1ccc(OC2CCN(C(=O)CC3CCOCC3)CC2)cc1` [Example 422, N-(imidazo[1,2-a]pyridin-7-ylmethyl)-4-{[1-(tetrahydro-2H-pyran-4-ylacetyl)piperidin-4-yl]oxy}benzamide]: the half-inhibitory concentration (IC50) in assay [1] worked out at 1720 nM; at NAMPT it was 0.212 nM; with PC3 cells it was 109 nM.

As to `O=C(NCc1ccc2nccn2c1)c1cnc(N(CC2CCCO2)C(=O)Cc2cscn2)s1` (stereo not drawn) [Example 191, N-(imidazo[1,2-a]pyridin-6-ylmethyl)-2-[(tetrahydrofuran-2-ylmethyl)(1,3-thiazol-4-ylacetyl)amino]-1,3-thiazole-5-carboxamide], the concentration for half-maximal inhibition (IC50) is 821 nM in assay [1], 6.09 nM on NAMPT and 14.3 nM in the assay on PC3 cells.

Turning to `O=C(CC1CCOC1)Nc1ccc(C(=O)NCc2ccn3ccnc3c2)cc1` (stereo not drawn) [Example 214, N-(imidazo[1,2-a]pyridin-7-ylmethyl)-4-[(tetrahydrofuran-3-ylacetyl)amino]benzamide], the IC50 in assay [1] stood at 641 nM; at NAMPT, 1.28 nM; in the assay with PC3 cells, 289 nM.

For the molecule `O=C(CC1CCOCC1)Nc1ccc(NC(=O)NCc2ccc3nccn3c2)cc1` [Example 278, N-(4-{[(imidazo[1,2-a]pyridin-6-ylmethyl)carbamoyl]amino}phenyl)-2-(tetrahydro-2H-pyran-4-yl)acetamide], the IC50 stood at 102 nM in assay [1], 0.621 nM at NAMPT and 51.7 nM in the assay with PC3 cells.

`Cn1nccc1C(=O)N1CCC(c2ccc(C(=O)NCc3ccn4ccnc4c3)cc2)CC1` [Example 511, N-(imidazo[1,2-a]pyridin-7-ylmethyl)-4-{1-[(1-methyl-1H-pyrazol-5-yl)carbonyl]piperidin-4-yl}benzamide]: the figures for the 50% inhibitory concentration (IC50) (in assay [1]; on NAMPT; with PC3 cells) were 65.3 nM, 0.286 nM and 2.78 nM, respectively.

With `CC1(C(=O)N2CCC(c3ccc(C(=O)NCc4ccn5ccnc5c4)cc3)C2)CCCCC1` (stereo not drawn) [Example 614, N-(imidazo[1,2-a]pyridin-7-ylmethyl)-4-{1-[(1-methylcyclohexyl)carbonyl]pyrrolidin-3-yl}benzamide], the values for the IC50 (in assay [1]; at NAMPT; in the assay with PC3 cells) were 216 nM, 0.67 nM and 5.72 nM, respectively.
